Reference: article PMC10247784, “Physiological activation of human and mouse bitter taste receptors by bile acids” (Communications Biology, 2023)

Molecular target: T1, mouse Tas2r108 (Mus musculus, UniProt Q9JKT3)
T1 construct: expressed in transfected cells; host or cells: HEK293T-Gα16gust44
T1 sequence (Q9JKT3 1-297): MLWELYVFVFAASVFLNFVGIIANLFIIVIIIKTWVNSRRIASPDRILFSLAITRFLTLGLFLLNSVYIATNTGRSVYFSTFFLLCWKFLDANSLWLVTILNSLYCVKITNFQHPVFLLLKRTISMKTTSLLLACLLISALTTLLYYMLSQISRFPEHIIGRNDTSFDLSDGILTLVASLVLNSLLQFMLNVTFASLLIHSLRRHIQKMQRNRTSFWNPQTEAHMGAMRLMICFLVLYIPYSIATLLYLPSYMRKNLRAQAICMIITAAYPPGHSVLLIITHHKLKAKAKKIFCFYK
Assay: Calcium imaging assay (FLIPR), HEK293T-Gα16gust44 cells transfected with mouse Tas2r108
Assay type: cell-based
Settings: for Δ F/F: Tas2r108
Protocol: This set of bile acids was chosen because of their commercial availability in high purities, their diversity within the class of bile acids and their previous detection and quantitation in human blood. Stock solutions were prepared in DMSO.
As basal growth medium for the HEK293T-Gα16gust44 cell line[17],[59] served Dulbecco’s modified eagle medium (DMEM) (Thermo Fisher Scientific, Darmstadt, Germany) supplemented with 10 % fetal bovine serum (Sigma-Aldrich, Steinheim, Germany), 2 mM L-glutamine (Sigma-Aldrich, Steinheim, Germany), 100 units/ml penicillin (Sigma Aldrich, Steinheim, Germany) and 100 µg/ml streptomycin (Sigma Aldrich, Steinheim, Germany). Growth conditions were 37 °C, 5 % CO2 and saturated air-humidity[60].
HEK293T-Gα16gust44 cells were seeded on poly-D-lysine (10 µg/ml) coated 96-well plates to reach a confluence of 40-60 % the next day. For transient transfection 150 ng of plasmid DNA containing the receptor of interest and 0.3 µl lipofectamine 2000 (Thermo Fisher Scientific, Darmstadt, Germany) per well were used and transfection took place according to the manual of lipofectamine 2000. […] The empty vector DNA (mock) was transfected as negative control[14],[41].
Cells were loaded using the calcium-sensitive fluorescent dye Fluo-4-AM (Abcam, Cambridge, Great Britain) in the presence of 2.5 mM probenecid (Sigma-Aldrich, Steinheim, Germany) the day after transfection[13],[41]. 1 h after loading, cells were washed with C1 buffer using a BioTek Cell Washer, incubated in the dark for half an hour and washed again. For automated agonist application and measurement of fluorescence changes, a FLIPR^TETRA device (Molecular Devices, San José, United States) was used. Viability of cells was tested by application of 100 nM Somatostatin 14 (Bachem, Bubendorf, Switzerland)[42].
Measured data were negative control corrected by subtracting the signal of the mock-transfected cells and exported to Microsoft Excel using the FLIPR software ScreenWorks 4.2. In Microsoft Excel software, standardization of maximum fluorescence intensities to the basal fluorescence and normalization to the buffer-only control was done to calculate the relative fluorescence changes (ΔF/F).
Initial screening experiments performed in duplicate wells were confirmed by at least one replication and representative traces were selected for display. All dose-response relationships were determined by three independent experiments (biological replicates) performed in duplicates (technical replicates). Threshold concentrations, defined as lowest substance concentrations leading to statistically significant elevated fluorescence changes in receptor-transfected cells compared with empty vector-transfected cells, were determined using SigmaPlot with Student’s t-test to evaluate statistical significance (p < 0.01).

C[C@H](CCC(=O)NCCS(=O)(=O)O)[C@H]1CC[C@H]2[C@@H]3[C@H](O)C[C@@H]4C[C@H](O)CC[C@]4(C)[C@H]3C[C@H](O)[C@]12C [Taurocholic Acid, taurocholic acid]
Δ F/F (conc. 0,01 mM): 0.0164 | Δ F/F (conc. 0,1 mM): 0.02829 | Δ F/F (conc. 0,03 mM): 0.01249 | Δ F/F (conc. 0,3 mM): 0.06351 | Δ F/F (conc. 0,001 mM): 0.009911 | Δ F/F (conc. 1 mM): 0.1676 | Δ F/F (conc. 0,003 mM): 0.0148 | RLU (Time 0 s): 0 RLU | RLU (Time 2 s): -20.2593 RLU | RLU (Time 4 s): -40.462 RLU | RLU (Time 6 s): -30.0161 RLU | RLU (Time 8 s): -12.374 RLU | RLU (Time 12 s): -13.3496 RLU | RLU (Time 14 s): -6.544 RLU | RLU (Time 16 s): -15.3343 RLU | RLU (Time 18 s): -11.3649 RLU | RLU (Time 18.781 s): 0.4416 RLU | RLU (Time 20.781 s): -36.0442 RLU | RLU (Time 22.781 s): -43.651 RLU | RLU (Time 24.781 s): -41.1365 RLU | RLU (Time 26.781 s): -18.6 RLU | RLU (Time 28.781 s): 11.2728 RLU | RLU (Time 30.781 s): 33.5132 RLU | RLU (Time 32.781 s): 71 RLU | RLU (Time 34.781 s): 95.3158 RLU | RLU (Time 36.781 s): 97.2719 RLU | RLU (Time 38.781 s): 144.173 RLU | RLU (Time 40.781 s): 134.881 RLU | RLU (Time 42.781 s): 146.815 RLU | RLU (Time 44.781 s): 188.478 RLU | RLU (Time 46.781 s): 187.465 RLU | RLU (Time 48.781 s): 214.327 RLU | RLU (Time 50.781 s): 211.162 RLU | RLU (Time 52.781 s): 236.861 RLU | RLU (Time 54.781 s): 237.067 RLU | RLU (Time 56.781 s): 230.295 RLU | RLU (Time 58.781 s): 253.142 RLU | RLU (Time 60.781 s): 220.824 RLU | RLU (Time 62.781 s): 245.001 RLU | RLU (Time 64.781 s): 248.53 RLU | RLU (Time 66.781 s): 284.462 RLU | RLU (Time 68.781 s): 254.576 RLU | RLU (Time 70.781 s): 279.831 RLU | RLU (Time 72.781 s): 269.677 RLU | RLU (Time 74.781 s): 263.013 RLU | RLU (Time 76.781 s): 268.161 RLU | RLU (Time 78.781 s): 271.517 RLU | RLU (Time 80.781 s): 261.286 RLU | RLU (Time 82.781 s): 284.591 RLU | RLU (Time 84.781 s): 263.187 RLU | RLU (Time 86.781 s): 264.054 RLU | RLU (Time 88.781 s): 257.931 RLU | RLU (Time 90.781 s): 266.719 RLU | RLU (Time 92.781 s): 280.373 RLU | RLU (Time 94.781 s): 260.776 RLU | RLU (Time 96.781 s): 264.943 RLU | RLU (Time 98.781 s): 262.119 RLU | RLU (Time 100.781 s): 242.991 RLU | RLU (Time 102.781 s): 248.884 RLU | RLU (Time 104.781 s): 234.786 RLU | RLU (Time 106.781 s): 246.521 RLU | RLU (Time 108.781 s): 245.379 RLU | RLU (Time 110.781 s): 221.773 RLU | RLU (Time 112.781 s): 255.593 RLU | RLU (Time 114.781 s): 236.786 RLU | RLU (Time 116.781 s): 246.038 RLU | RLU (Time 118.781 s): 236.543 RLU | RLU (Time 120.781 s): 242.472 RLU | RLU (Time 122.781 s): 225.877 RLU | RLU (Time 124.781 s): 231.718 RLU | RLU (Time 126.781 s): 218.383 RLU | RLU (Time 128.781 s): 219.672 RLU | RLU (Time 130.781 s): 215.513 RLU | RLU (Time 132.781 s): 219.132 RLU | RLU (Time 134.781 s): 219.383 RLU | RLU (Time 136.781 s): 199.62 RLU | RLU (Time 137.562 s): 222.887 RLU | RLU (Time 143.562 s): 216.156 RLU | RLU (Time 149.562 s): 209.286 RLU | RLU (Time 155.562 s): 217.366 RLU | RLU (Time 161.562 s): 220.781 RLU | RLU (Time 167.562 s): 219.02 RLU | RLU (Time 173.562 s): 233.427 RLU | RLU (Time 179.562 s): 239.06 RLU | RLU (Time 185.562 s): 225.962 RLU | RLU (Time 191.562 s): 229.727 RLU | RLU (Time 197.562 s): 239.899 RLU | RLU (Time 203.562 s): 214.938 RLU | RLU (Time 209.562 s): 251.411 RLU | RLU (Time 215.562 s): 226.847 RLU | RLU (Time 221.562 s): 216.644 RLU | RLU (Time 227.562 s): 259.359 RLU | RLU (Time 233.562 s): 219.243 RLU | RLU (Time 239.562 s): 236.142 RLU | RLU (Time 245.562 s): 237.626 RLU | RLU (Time 293.562 s): 221.03 RLU | RLU (Time 299.562 s): 234.317 RLU | RLU (Time 305.562 s): 241.837 RLU | RLU (Time 311.562 s): 254.495 RLU | RLU (Time 317.562 s): 265.787 RLU | RLU (Time 323.562 s): 251.038 RLU | RLU (Time 329.562 s): 233.221 RLU | RLU (Time 335.562 s): 247.117 RLU | RLU (Time 341.562 s): 273.956 RLU | RLU (Time 347.562 s): 268.956 RLU | RLU (Time 353.562 s): 264.083 RLU | RLU (Time 359.562 s): 275.281 RLU | Activation threshold concentration Tas2r108 (p < 0.01 vs empty vector): 100 µM
